According to the supplement of paper PMC10307832:

Tests used:
Test in all cases: relative viability (nuclei count vs DMSO), 5 days (fraction); higher = more cells survive
[1] = compound: N#CC1(c2ccc(NC(=O)c3cccnc3NCc3ccncc3)cc2)CCCC1 [Apatinib] + O=C(c1cc(Cc2n[nH]c(=O)c3ccccc23)ccc1F)N1CCN(C(=O)C2CC2)CC1 [Olaparib] (partner 8 µM)
In short: (§1)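 Cells from lung cancer lines were seeded into 1536-well plates and, one day later, dosed by pin tool. Treatments were either a single drug or a fixed dose of an anchor drug with five library-drug doses (not always all listed) in √10 steps. After 5 days, nuclei were stained in a one-step fixation (final 0.05% Triton X-100, 1% formaldehyde, 1 ug/ml Hoechst) and counted on 4× images, and relative viability is the treated-to-vehicle nuclei ratio, as the median of duplicate plates.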

[2] = compound: N#CC1(c2ccc(NC(=O)c3cccnc3NCc3ccncc3)cc2)CCCC1 [Apatinib] + CC(=O)c1c(C)c2cnc(Nc3ccc(N4CCNCC4)cn3)nc2n(C2CCCC2)c1=O [Palbociclib] (partner 0.5 µM)
In short: as §1

[3] = compound: N#CC1(c2ccc(NC(=O)c3cccnc3NCc3ccncc3)cc2)CCCC1 [Apatinib] + CS(=O)(=O)N1CCN(Cc2cc3nc(-c4cccc5[nH]ncc45)nc(N4CCOCC4)c3s2)CC1 [Pictilisib] (partner 1 µM)
In short: as §1

[4] = compound: CN(C)C(=N)NC(=N)N [Metformin] + CC(=O)c1c(C)c2cnc(Nc3ccc(N4CCNCC4)cn3)nc2n(C2CCCC2)c1=O [Palbociclib] (partner 0.5 µM)
In short: as §1

| Cell Line | relative viability ([1]; first compound 0.08 µM) | relative viability ([1]; first compound 0.253 µM) | relative viability ([1]; first compound 0.8 µM) | relative viability ([1]; first compound 2.53 µM) | relative viability ([1]; first compound 8 µM) | relative viability ([2]; first compound 0.08 µM) | relative viability ([2]; first compound 0.253 µM) | relative viability ([2]; first compound 0.8 µM) | relative viability ([2]; first compound 2.53 µM) | relative viability ([2]; first compound 8 µM) | relative viability ([3]; first compound 0.08 µM) | relative viability ([3]; first compound 0.253 µM) | relative viability ([3]; first compound 0.8 µM) | relative viability ([3]; first compound 2.53 µM) | relative viability ([3]; first compound 8 µM) | relative viability ([4]; first compound 10 µM) | relative viability ([4]; first compound 31.62 µM) | relative viability ([4]; first compound 100 µM) | relative viability ([4]; first compound 316.23 µM) | relative viability ([4]; first compound 1000 µM) |
| --- | --- | --- | --- | --- | --- | --- | --- | --- | --- | --- | --- | --- | --- | --- | --- | --- | --- | --- | --- | --- |
| NCI-H23 | 0.305 | 0.322 | 0.301 | 0.316 | 0.238 | 0.561 | 0.57 | 0.575 | 0.409 | 0.424 | 0.547 | 0.522 | 0.458 | 0.426 | 0.492 | 0.583 | 0.563 | 0.495 | 0.508 | 0.553 |
| LCLC-103H | 0.753 | 0.713 | 0.745 | 0.712 | 0.753 | 0.513 | 0.436 | 0.426 | 0.465 | 0.483 | 0.651 | 0.639 | 0.554 | 0.545 | 0.546 | 0.465 | 0.561 | 0.532 | 0.437 | 0.495 |
| NCI-H1650 | 0.827 | 0.787 | 0.799 | 0.761 | 0.696 | 0.262 | 0.352 | 0.323 | 0.299 | 0.303 | 0.355 | 0.658 | 0.58 | 0.526 | 0.477 | 0.316 | 0.381 | 0.424 | 0.229 | 0.305 |
| NCI-H1792 | 0.416 | 0.588 | 0.341 | 0.224 | 0.216 | 0.662 | 0.651 | 0.577 | 0.633 | 0.622 | 0.309 | 0.278 | 0.334 | 0.191 | 0.243 |  | 0.663 | 0.817 | 0.698 | 0.238 |
| NCI-H1944 | 0.407 | 0.378 | 0.37 | 0.346 | 0.319 | 0.362 | 0.327 | 0.272 | 0.325 | 0.255 | 0.344 | 0.345 | 0.306 | 0.282 | 0.303 | 0.386 | 0.44 | 0.404 | 0.344 | 0.404 |
| NCI-H2170 | 0.617 | 0.623 | 0.638 | 0.49 | 0.485 | 0.387 | 0.382 | 0.362 | 0.379 | 0.298 | 0.329 | 0.301 | 0.304 | 0.306 | 0.315 | 0.334 | 0.389 | 0.386 | 0.354 | 0.391 |
| COR-L23 | 0.355 | 0.377 | 0.324 | 0.273 | 0.286 | 0.321 | 0.341 | 0.278 | 0.273 | 0.271 | 0.966 | 0.777 | 0.788 | 0.65 | 0.658 | 0.237 | 0.289 | 0.218 | 0.208 | 0.249 |
| COR-L 105 | 0.794 | 0.802 | 0.737 | 0.543 | 0.672 | 0.428 | 0.397 | 0.365 | 0.365 | 0.42 | 0.512 | 0.471 | 0.33 | 0.438 | 0.354 | 0.419 | 0.44 | 0.464 | 0.433 | 0.441 |
| HCC-15 | 0.657 | 0.76 | 0.686 | 0.615 | 0.54 | 0.792 | 0.734 | 0.677 | 0.705 | 0.586 | 0.77 | 0.786 | 0.693 | 0.706 | 0.71 | 0.726 | 0.807 | 0.716 | 0.562 | 0.831 |
| NCI-H1666 | 0.803 | 0.8 | 0.705 | 0.743 | 0.765 | 0.675 | 0.638 | 0.655 | 0.629 | 0.626 | 0.408 | 0.413 | 0.456 | 0.418 | 0.54 | 0.695 | 0.616 | 0.642 | 0.681 | 0.714 |
| HCC-78 | 0.803 | 0.696 | 0.878 | 0.711 | 0.768 | 0.48 | 0.453 | 0.476 | 0.494 | 0.442 | 0.299 | 0.158 | 0.236 | 0.221 | 0.205 | 0.479 | 0.507 | 0.452 | 0.505 | 0.483 |
| A-427 | 0.66 | 0.71 | 0.73 | 0.641 | 0.612 | 0.52 | 0.534 | 0.507 | 0.518 | 0.453 | 0.925 | 0.679 | 0.715 | 0.611 | 0.592 | 0.501 | 0.546 | 0.516 | 0.53 | 0.389 |
| EMC-BAC-2 | 0.57 | 0.507 | 0.44 | 0.363 | 0.319 | 0.518 | 0.536 | 0.506 | 0.449 | 0.412 | 0.561 | 0.593 | 0.572 | 0.516 | 0.527 | 0.499 | 0.547 | 0.502 | 0.496 | 0.423 |
| NCI-H2126 | 0.973 | 0.861 | 0.88 | 0.845 | 0.904 | 0.324 | 0.352 | 0.355 | 0.322 | 0.34 | 0.52 | 0.398 | 0.473 | 0.505 | 0.479 | 0.399 | 0.349 | 0.307 | 0.322 | 0.328 |
| NCI-H1437 | 0.61 | 0.663 | 0.57 | 0.574 | 0.496 | 0.314 | 0.3 | 0.277 | 0.254 | 0.209 | 0.468 | 0.441 | 0.377 | 0.392 | 0.284 | 0.384 | 0.459 | 0.439 | 0.389 | 0.4 |
| LXF-289 | 1.03 | 1.18 | 0.993 | 0.956 | 0.904 | 0.594 | 0.593 | 0.567 | 0.568 | 0.562 | 0.838 | 0.828 | 0.76 | 0.714 | 0.72 | 0.516 | 0.557 | 0.568 | 0.535 | 0.564 |
